Measurements published in patent publication US20040009921A1, “Methods and compositions for the treatment of cancer” (Allergan, Inc., priority 2002, published 2004).

Tests used:
[1] = tested on: β-catenin; test: Western blotting of β-catenin protein in HEK293 cells and stable lines RBC, CAT, RmBC; assay type: cell-based, human
Method: (§1) (A) Western blotting analysis of HEK293 cells transfected with a combination of expression vectors for LacZ (2 μg), V5-tagged β-catenin(4 μg), and Flag-tagged RXRα (2 μg) as indicated below the gels. […] RXRα protein was measured using an HRP-conjugated mouse monoclonal antibody against the Flag tag. (B) Western blotting analysis of stable cell line RBC that overexpresses both β-catenin and RXRα. […] (C) Western blotting analysis of stable cell line CAT that overexpresses only β-catenin. […] Endogenous and overexpressed β-catenin were detected using a rabbit polyclonal antibody as indicated by “Total” whereas overexpressed β-catenin was analyzed using a mouse monoclonal antibody against the V5 tag. Endogenous and overexpressed RXRα were detected by a rabbit polyclonal antibody against RXRα, whereas overexpressed RXRα was determined by an HRP-conjugated mouse monoclonal antibody against the Flag tag. (D) Western blotting analysis of HEK293 cells transfected with a fixed amount of β-catenin (4 μg) plus an increasing amount of RXRα as indicated at the top. […] (E) Western blotting analysis of HEK293, CV-1, and Hela cells transfected with 2 μg of RXRα and 4 μg of wild type or mutant β-catenin. α. […] (F) Northern blotting analysis of RBC cells using β-catenin as a probe.
(§2) FIG. 4 Receptor and ligand specificity in degradation of β-catenin by retinoid receptors. HEK293 cells transfected with expression vectors for β-catenin (4 μg) and RXRs (2 μg) or RARs (2 μg) and treated with ligands at concentrations indicated at the top of each gel. Protein levels were detected by Western blotting as shown in this figure. β-catenin and RARs were detected by HRP-conjugated antibodies against their V5 tag. RXRs were detected by HRP-conjugated antibodies against their Flag tag. […] In this experiment, the amount of expression vectors for RXRα and RARs used in transfection was 1 μg.
(§3) HEK293 cells were seeded at a density of […] per dish were seeded into 100-mm dishes and cultured overnight in DMEM containing 10% FBS. Cells were transfected with 1-4 μg of various cDNA or parental expression vectors (8 μg of DNA in total) using Lipofectamine®. Five hours after transfection, cells were fed with fresh culture media DMEM containing 10% charcoal-treated FBS with vehicle DMSO or retinoids prepared in DMSO. After a given time of treatment, cells were harvested and lysed in a buffer containing 1% Nonidet® P-40, 30 mM Tris-HCl (pH7.4), 0.5 mM EDTA (pH 8.0), 150 mM NaCl, 10% glycerol, 1 mM sodium orthovanadate, 40 mM NaF, 0.5 mM phenylmethylsulfonyl fluoride (PMSF) and a cocktail of protease inhibitors (Merck).
(§4) Total cell lysates were homogenized by passing through a QIAshredder® (Qiagen) and cleared from insoluble materials by centriftigation at 12,000 g. Protein concentration was determined using a Bradford total protein assay kit (Bio-Rad). Total cell lysates were electrophoresed using a 4-12% SDS-PAGE gradient gel and transferred to either nitrocellulose or PVDF filter membranes. The membranes were blocked with 10% non-fat milk reconstituted from dairy milk powder in phosphate-buffered saline (PBS) containing 0.1% Tween®-20 (PBST). The membranes were incubated with primary antibodies at room temperature for 2 hours or at 4° C. for overnight. After the removal of unbound antibodies, membranes were incubated with horseradish peroxidase-conjugated secondary antibodies for one hour at room temperature and washed five times with PBST.

[2] = biological target: T1, RXRα (Homo sapiens, UniProt P19793); test: Western blotting of RXRα protein in HEK293 cells and stable lines; assay type: cell-based
T1 construct: The RXRα coding region was amplified from this clone by PCR; expressed in transfected cells; host or cells: HEK293 (transient; CAT transfected with RXRα)
T1 sequence (P19793 1-462): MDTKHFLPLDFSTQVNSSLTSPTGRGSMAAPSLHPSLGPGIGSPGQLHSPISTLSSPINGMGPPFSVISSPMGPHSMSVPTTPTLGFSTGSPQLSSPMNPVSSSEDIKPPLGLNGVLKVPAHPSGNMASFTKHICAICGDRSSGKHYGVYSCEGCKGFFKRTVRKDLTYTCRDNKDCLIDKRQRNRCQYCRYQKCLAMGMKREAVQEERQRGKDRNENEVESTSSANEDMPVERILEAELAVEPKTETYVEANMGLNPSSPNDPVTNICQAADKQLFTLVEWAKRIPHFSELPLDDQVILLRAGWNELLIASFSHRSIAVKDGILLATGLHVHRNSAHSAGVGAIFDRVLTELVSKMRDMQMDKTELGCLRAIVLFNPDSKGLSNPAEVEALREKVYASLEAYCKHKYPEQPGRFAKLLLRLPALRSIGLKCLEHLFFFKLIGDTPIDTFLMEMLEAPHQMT
Method: as §1, §2, §3, §4

[3] = tested on: β-galactosidase; test: Western blotting of β-galactosidase control (LacZ) in HEK293 cells; assay type: cell-based; conditions: HEK293 cotransfected with LacZ, 0.1 μM
Method: (A) Western blotting analysis of HEK293 cells transfected with a combination of expression vectors for LacZ (2 μg), V5-tagged β-catenin(4 μg), and Flag-tagged RXRα (2 μg) as indicated below the gels. […] RXRα protein was measured using an HRP-conjugated mouse monoclonal antibody against the Flag tag. […] Endogenous and overexpressed β-catenin were detected using a rabbit polyclonal antibody as indicated by “Total” whereas overexpressed β-catenin was analyzed using a mouse monoclonal antibody against the V5 tag. Endogenous and overexpressed RXRα were detected by a rabbit polyclonal antibody against RXRα, whereas overexpressed RXRα was determined by an HRP-conjugated mouse monoclonal antibody against the Flag tag. (D) Western blotting analysis of HEK293 cells transfected with a fixed amount of β-catenin (4 μg) plus an increasing amount of RXRα as indicated at the top.
HEK293 cells were seeded at a density of 2×10 per dish were seeded into 100-mm dishes and cultured overnight in DMEM containing 10% FBS. Cells were transfected with 1-4 μg of various cDNA or parental expression vectors (8 μg of DNA in total) using Lipofectamine®. […]
Total cell lysates were homogenized by passing through a QIAshredder® (Qiagen) and cleared from insoluble materials by centriftigation at 12,000 g. Protein concentration was determined using a Bradford total protein assay kit (Bio-Rad). […]

[4] = HEK293 co-expressing RXRα with RARα
[5] = HEK293 transfected with β-catenin and RXRα, 17 hours

CC(/C=C/[C@@H]1C[C@]1(C)c1ccc2c(c1)C(C)(C)CCC2(C)C)=C\C(=O)O [AGN 4204]
β-catenin protein ([1]; CAT cells transfected with RXRα expression vector, 0.1 μM, 17 hours): significantly reduced | β-catenin protein ([1]; CAT cells, low endogenous RXRα, 0.1 μM, 17 hours): did not cause a significant decrease of β-catenin | β-catenin protein ([1]; HEK293, fixed β-catenin plus increasing amounts of RXRα vector, 0.1 μM, 17 hours): a proportional decrease in β-catenin | intracellular β-catenin protein levels ([1]; HEK293, β-catenin alone overexpressed, 0.1 μM, 6 or 15 hours): no significant effects | degradation of β-catenin [1, 4]: RXR-ligand-dependent degradation | amounts of β-catenin protein ([1]; HEK293 co-overexpressing β-catenin and RXR, 0.1 μM, 6 or 15 hours): a reduction in the amounts of β-catenin protein | degradation of β-catenin ([1]; HEK293 overexpressing RARβ or RARγ): did not result in degradation of β-catenin | concentration effective in inducing degradation of β-catenin [1, 5]: 1 nM | degradation of β-catenin through RXRγ ([1]; HEK293 transfected with β-catenin and RXRγ): able to stimulated the degradation of β-catenin through RXRγ | AGN 4204-induced β-catenin degradation mediated by RXRα deletion mutants ([1]; HEK293 with β-catenin and RXRα mutants, 0.1 μM, 17 hours): significantly reduced | potency in inducing β-catenin degradation ([1]; HEK293 with β-catenin and RXRα, FIG. 4A): high potency | time at which beginning of β-catenin degradation was observed ([1]; RBC cells, 0.1 μM): 6 h | degradation of ΔNβ-catenin protein ([1]; transiently transfected HEK293 and stable line RmBC (ΔNβ-catenin and RXRα), 0.1 μM): degradation of αNβ-catenin was observed | endogenous RXRα protein ([2]; CAT cells, 0.1 μM, 17 hours): a decrease of the endogenous RXRα was observed | amount of RXRα protein ([2]; HEK293, independent of β-catenin, 0.1 μM): a reduction inn the amount of RXRα | degradation of RXRα [2, 4]: RXR-ligand-dependent degradation | concentration effective in inducing degradation of RXRα [2, 5]: 1 nM | time at which degradation of RXRα was first detected ([2]; RBC cells, 0.1 μM): 1 h | expression of β-galactosidase protein from LacZ control [3]: not significantly affected
